Data set [1] concerns MX-1 human mammary carcinoma. Description: Tumor cell growth inhibition in vitro. Format: cell-based. The procedure:
(§1) The cells were cultured at an initial density of 2-5×10^4 cells per ml. […] For solid tumor cells growing in a monolayer (such as MCF-7/Adr), cytotoxicitiy of the drug was determined in 96-well microtiter plates by using the sulforhodamine B method as described by Skehan et al (23) for measuring the cellular protein content. For cells that were grown in suspension (such as CCRF-CEM and its sublines), cytotoxicitiy was measured by using the 2,-3-bis(2-methoxy-4-nitro-5-sulfophenyl)-5carboxanilide)-2H terazodium hydroxide (XTT)-microculture tetrazonium method (24) in duplicate in 96-well microtiter plates. For both methods, the absorbance of each well was measured with a microplate reader (EL-340, Bio-Tek, Burlington, Vt.). Each run entailed six or seven concentrations of the tested drugs. Dose-effect relationship data were analyzed with the median-effect plot (25) by using a previously described computer program (26).

In the next data set the test system is B16 Melanoma. Format: in vivo, murine. Particulars: B16 Melanoma, i/p, maximal tolerated doses.
Data set [2] relates to MX-1 mammary carcinoma xenograft. Particulars: MX-1, i.p., ref 19 (Table 4).
Data set [3] has as its system UL-3-B/Taxol.
Data set [4] is described as follows: Body-weight decrease and lethality in tumor-bearing nude mice. Particulars: nude mice. The procedure:
(§2) Depending on the tumor type, treatment started on day 10 to day 21 when subcutaneous tumor size reached 35-200 mm^3, except otherwise indicated. Tumor size and body-weight were recorded every other day (Q2D) and, for humane reasons, the animals were sacrificed when tumor size reached ≧10% of body-weight. Each group, including untreated control, consisted of 3-5 animals unless otherwise indicated.
Essential features of useful cancer therapeutic agent involve not only high efficiency against cancer but also low toxicity toward the host, especially toward vital organs or functions [i.e. wide therapeutic window or high therapeutic index (LD50/ED50)].
(§3) Human tumor cells (5×10^6) or tumor tissue (30-50 mg) were implanted s.c. flank in nu/nu mice (Charles River Laboratories, Wilmington, Mass.). When tumor grew to a specified size, treatment was started by every-other day×5 with 6 hr i.v.-infusion, unless otherwise indicated. Tumor volume was measured with calipers in three dimensions (length×width×height or width). Body-weight changes and lethality were monitored every other day.

Data set [5] has as its system UL-3-C ovarian adenocarcinoma. Description: Tumor cell growth inhibition in vitro. Format: cell-based, human. The procedure:
(§4) The fresh medium containing each drug was replenished every 7-14 days. […] In each case ,the drug-exposed cells were resuspended in fresh media for a minimum of 4 days before the experiments for the cell-growth inhibition was carried out.
(§5) The cells were cultured at an initial density of 2-5×10^4 cells per ml. They were maintained in a 5% CO2-humidified atmosphere at 37° C. in RPMI mediun 1640 (GIBCO/BRL) containing penicillin (100 units/ml), streptomycin (100 μg/ml) (GIBCO/BRL), and 5% heat-inactivated fetal bovine serum. For solid tumor cells growing in a monolayer (such as MCF-7/Adr), cytotoxicitiy of the drug was determined in 96-well microtiter plates by using the sulforhodamine B method as described by Skehan et al (23) for measuring the cellular protein content. For cells that were grown in suspension (such as CCRF-CEM and its sublines), cytotoxicitiy was measured by using the 2,-3-bis(2-methoxy-4-nitro-5-sulfophenyl)-5carboxanilide)-2H terazodium hydroxide (XTT)-microculture tetrazonium method (24) in duplicate in 96-well microtiter plates. For both methods, the absorbance of each well was measured with a microplate reader (EL-340, Bio-Tek, Burlington, Vt.). Each run entailed six or seven concentrations of the tested drugs. Dose-effect relationship data were analyzed with the median-effect plot (25) by using a previously described computer program (26).

Data set [6] concerns UL-3-B/Taxol. Description: cells. Particulars: Homo sapiens, UL-3-B/Taxol.
Data set [7] deals with MCF-7 human mammary adenocarcinoma. Description: Tumor cell growth inhibition in vitro. In kind it is cell-based. Particulars: Homo sapiens, MCF7, MCF-7; read-out: IC50. The procedure: as §1
Another data set has as its system CCRF-CEM/VBL. Description: Relative potency in vitro, very highly resistant MDR cells. In kind it is cell-based, human. Particulars: Homo sapiens, CCRF-CEM, read-out: CCRF-CEM/VBL IC50 in μM. The procedure:
as §5

The test system of data set [8] is A549 lung carcinoma xenograft. Description: Human tumor xenograft in nude mice. In kind it is in vivo. Particulars: A549, i.v. infusion. The procedure:
as §2
(§6) Athymic nude mice bearing the nu/nu gene were used for all human tumor xenografts. Outbred, Swiss-background mice were obtained from Charles River Laboratories. Male mice 8 weeks or older weighing 22 g and up were used for most experiments. The drug was administered via the tail vein for 6 hr.-i.v. infusion. Each individual mouse was confined in a perforated Falcon polypropylene tube restrainer for drug administration. Tumor volume was assessed by measuring length×width×height (or width) using a caliper. The programmable Harvard PHD2000 syringe pump (Harvard Apparatus) with multi-track was used for i.v. infusion. […] All animal studies were conducted in accordance with the guidelines of the National Institutes of Health “Guide for the Care and Use of Animals” and the protocol approved by the Memorial Sloan-Kettering Cancer Center's Institutional Animal Care and Use Committee. In keeping with the policy of this committee for the humane treatment of tumor-bearing animals, mice were euthanized when tumors reached ≧10% of their total body weight.
as §3
Background: A xenograft is tissue or cells of one species grown in another, often human tumour cells in immunodeficient mice.

For data set [9], the system named is PC-3 prostate adenocarcinoma xenograft. Description: Human tumor xenograft in nude mice. In kind it is in vivo. Particulars: PC-3, i.v. infusion. The procedure:
as §2, §6, §3

For the next data set, the system named is CCRF-CEM/VBL1000. Description: Cell growth inhibition, resistant subline. In kind it is cell-based. Particulars: Homo sapiens. The procedure:
as §4, §5

In another data set the test system is MCF-7/Adr. Description: Tumor cell growth inhibition in vitro. In kind it is cell-based, human. The conditions noted are these: Homo sapiens, NCI/ADR-RES, MCF-7/Adr. The procedure: as §1
Data set [10] deals with MCF-7/Adr mammary xenograft. Description: Human tumor xenograft in nude mice. Format: in vivo. The conditions noted are these: i.v. infusion.
Data set [11] relates to K562 chronic myelocytic leukemia xenograft. Description: Human tumor xenograft in nude mice. In kind it is in vivo. The procedure:
FIG. 34 depicts tumor size in nude mice bearing human leukemia […] tumor following 6 mg/kg C-15-Aza-EpoB, Q2D×6 and 30 mg/kg dEpoF, Q2ED×6 (i.v. infusion […].). K562 tumor cells (1×10^7 in 0.2 mL) were inoculated to nude mice on day 0. Mice were treated with 6 mg/kg aza-EpoB, 6 h-i.v. infusion on days 20, 22, 24, 26, 28 and 30 (Δ, n=3). The same group of mice were then treated with 30 mg/kg dEpoF, 6 h-i.v. infusion on days 42, 44, 46, 48, 52, and 54 (Δ, n=3). […] The control mice (∘, n=3) received vehicle only.
K562 tumor cells (1×10^7, in 0.2 ml/mouse) were implanted s.c. on day 0. […] The control mice (∘, n=4) received vehicle, Cremophor-ethanol (1:1), only. The vertical bars indicate mean tumor size in mm^3±S.E.
as §2, §6, §3

pIC50: −log10 of the molar value. Counter-ions that a name gives are not always drawn. Like-named read-outs stand apart in the source and are kept apart here.

In general, pIC50 refers to the IC50 on a negative log10 scale, so that one unit is a factor of ten. Regarding `C/C(=C\c1csc(C)n1)[C@@H]1C[C@@H]2O[C@]2(C)CCC[C@H](C)[C@H](O)[C@@H](C)C(=O)C(C)(C)[C@@H](O)CC(=O)O1` [EpoB, epothilone B, reference compound], the pIC50 is 8.74 in data set [1], 8.91 with UL-3-B/Taxol [3] (UL-3-B/Taxol) and 9.24 in data set [5] (read-out: IC50). Besides, the “Therapeutic Effect Rank Order” value in the data set on B16 Melanoma is reported as “dEpoB>Taxol>>EpoB”; in [2], “dEpoB>Camptothecin>Taxol>VBL, EpoB”. Besides, in the data set with UL-3-B/Taxol [3] (UL-3-B/Taxol vs UL-3-C), the “cross-resistance (fold of resistance vs parent cell line)” value is recorded as 2.1 x. Besides, the “drop in body-weight that led to lethality” value in data set [4] is 14-20%.
Turning to `CC[C@]1(O)C[C@@H]2CN(CCc3c([nH]c4ccccc34)[C@@](C(=O)OC)(c3cc4c(cc3OC)N(C)[C@H]3[C@@](O)(C(=O)OC)[C@H](OC(C)=O)[C@]5(CC)C=CCN6CC[C@]43[C@@H]65)C2)C1` [Vinblastine, vinblastine sulfate, reference compound], the pIC50 in the data set on UL-3-B/Taxol [6] was 8.51; in [7] it was 8.03; with CCRF-CEM/VBL1000, 6.01; in the data set on MCF-7/Adr, 7.60; in [5] (Homo sapiens), 9.43. Further, the IC50 with CCRF-CEM/VBL is 2.02 µM. Moreover, the “Therapeutic Effect Rank Order” value is listed as “dEpoB>Camptothecin>Taxol>VBL, EpoB” in [2]; “Taxol, dEpoB, VBL>VP-16” in data set [8]; “Taxol, VBL>dEpoB>>VP-16” in data set [9]; “dEpoB>>VP-16, Taxol>VBL, Adriamycin” in data set [10]; “dEpoB>>>VBL> Taxol> Adriamycin” in [11] (K562, i.v. infusion, FIG. 3 & 4). For the same molecule, in [11] (K562, dEpoB 30 mg/kg, Taxol 20 mg/kg 6 hr i.v. infusion, Adriamycin 3 mg/kg, vinblastine 2.5 mg/kg i.v., every other day from day 20 (FIG. 36)), the therapeutic effect entry is on record as “only partial curative or remissive effects”.

These data come from patent US6867305B2, “Synthesis of epothilones, intermediates thereto and analogues thereof” (Sloan-Kettering Institute for Cancer Research, priority 1996, dated 2005).
